Test results taken from ChEMBL document CHEMBL5370641, “Structure-Based Optimization and Biological Evaluation of Potent and Selective MMP-7 Inhibitors for Kidney Fibrosis” (J Med Chem, 2023).
pIC50: −log10 of the molar value. Numbered stars: 1 amine (or outer) side, 2 acyl side, 3 side chain; on linkers, the order of the positions; unused ones are H or OH. Square brackets hold non-standard residues; d marks the D form. Peptide text beside a SMILES is read from it. * marks the point of attachment. Benzenesulfonyl(4-Cl,3-CF3) = O=S(=O)(c1ccc(Cl)c(C(F)(F)F)c1)*; Phe(4-CF3) = N[C@@H](Cc1ccc(C(F)(F)F)cc1)C(=O)O; Ala(4-Pyridazinyl) = N[C@@H](Cc1ccnnc1)C(=O)O; Ala(thiazol-2-yl) = N[C@@H](Cc1nccs1)C(=O)O; Ala(4-thiazolyl) = N[C@@H](Cc1cscn1)C(=O)O; Phe(3-I) = N[C@@H](Cc1cccc(I)c1)C(=O)O; Phe(4-I) = N[C@@H](Cc1ccc(I)cc1)C(=O)O; γGlu = O=C(O)[C@H](CCC(=O)[*:2])N[*:1]; Phe(2-I) = N[C@@H](Cc1ccccc1I)C(=O)O; hPhe = N[C@@H](CCc1ccccc1)C(=O)O; 2Pal = N[C@@H](Cc1ccccn1)C(=O)O; 3Pal = N[C@@H](Cc1cccnc1)C(=O)O; Phg = N[C@H](C(=O)O)c1ccccc1; Tle = CC(C)(C)[C@H](N)C(=O)O; β3hP = O=C(O)C[C@@H]1CCCN1

Key:
[1] = target: T1, Matrilysin (Homo sapiens, UniProt P09237); assay: Inhibition of recombinant human MMP7 using MOCAc-Pro-Leu-Gly-Leu-A2pr-(Dnp)-Ala-Arg-NH2 as substrate preincubated with compound for 15 mins followed by substrate addition and measured after 2 hrs by fluorescence based analysis
T1 sequence (P09237 whole entry): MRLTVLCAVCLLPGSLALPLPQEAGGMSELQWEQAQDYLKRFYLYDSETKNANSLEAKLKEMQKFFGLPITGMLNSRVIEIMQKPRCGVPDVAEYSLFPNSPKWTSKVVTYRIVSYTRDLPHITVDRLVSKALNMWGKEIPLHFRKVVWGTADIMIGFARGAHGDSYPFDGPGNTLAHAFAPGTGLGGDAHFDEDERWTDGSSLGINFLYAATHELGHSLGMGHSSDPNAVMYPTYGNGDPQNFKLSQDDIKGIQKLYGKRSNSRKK

[2] = target: Matrix metalloproteinase-14 (Homo sapiens, UniProt P50281); assay: Inhibition of recombinant human MMP14 using MOCAc-Lys-Pro-Leu-Gly-Leu-A2pr(Dnp)-Ala-Arg-NH2 as substrate preincubated with compound for 15 mins followed by substrate addition and measured after 1 hrs by fluorescence based analysis

Structure (SMILES)	pIC50 [1]	pIC50 [2]
CC(C)(C)[C@H](NC(=O)[C@H](Cc1ccccn1)NC(=O)CNC(=O)CC[C@H](NS(=O)(=O)c1ccc(Cl)c(C(F)(F)F)c1)C(=O)O)C(=O)N1CCC[C@H]1CC(N)=O ({Benzenesulfonyl(4-Cl,3-CF3)-γGlu}-G[2Pal][Tle][β3hP]-NH2)	8.72	5.46
CC(C)(C)[C@H](NC(=O)[C@H](Cc1ccccc1I)NC(=O)CNC(=O)CC[C@H](NS(=O)(=O)c1ccc(Cl)c(C(F)(F)F)c1)C(=O)O)C(=O)N1CCC[C@H]1CC(N)=O ({Benzenesulfonyl(4-Cl,3-CF3)-γGlu}-G[Phe(2-I)][Tle][β3hP]-NH2)	8.06	5.47
CC(C)(C)[C@H](NC(=O)[C@H](Cc1ccc(C(F)(F)F)cc1)NC(=O)CNC(=O)CC[C@H](NS(=O)(=O)c1ccc(Cl)c(C(F)(F)F)c1)C(=O)O)C(=O)N1CCC[C@H]1CC(N)=O ({Benzenesulfonyl(4-Cl,3-CF3)-γGlu}-G[Phe(4-CF3)][Tle][β3hP]-NH2)	8.00	5.77
CC(C)(C)[C@H](NC(=O)[C@H](Cc1ccc(I)cc1)NC(=O)CNC(=O)CC[C@H](NS(=O)(=O)c1ccc(Cl)c(C(F)(F)F)c1)C(=O)O)C(=O)N1CCC[C@H]1CC(N)=O ({Benzenesulfonyl(4-Cl,3-CF3)-γGlu}-G[Phe(4-I)][Tle][β3hP]-NH2)	8.08	6.16
CC(C)(C)[C@H](NC(=O)[C@@H](NC(=O)CNC(=O)CC[C@H](NS(=O)(=O)c1ccc(Cl)c(C(F)(F)F)c1)C(=O)O)c1ccccc1)C(=O)N1CCC[C@H]1CC(N)=O ({Benzenesulfonyl(4-Cl,3-CF3)-γGlu}-G[Phg][Tle][β3hP]-NH2)	6.42	5.29

Further molecules by rising pIC50 [1], results first:

pIC50 [1]	pIC50 [2]	Structure (SMILES)
7.10	5.35	CC(C)(C)[C@H](NC(=O)[C@H](CCc1ccccc1)NC(=O)CNC(=O)CC[C@H](NS(=O)(=O)c1ccc(Cl)c(C(F)(F)F)c1)C(=O)O)C(=O)N1CCC[C@H]1CC(N)=O ({Benzenesulfonyl(4-Cl,3-CF3)-γGlu}-G[hPhe][Tle][β3hP]-NH2)
7.92	5.51	CC(C)(C)[C@H](NC(=O)[C@H](Cc1cccc(I)c1)NC(=O)CNC(=O)CC[C@H](NS(=O)(=O)c1ccc(Cl)c(C(F)(F)F)c1)C(=O)O)C(=O)N1CCC[C@H]1CC(N)=O ({Benzenesulfonyl(4-Cl,3-CF3)-γGlu}-G[Phe(3-I)][Tle][β3hP]-NH2)
8.02	5.42	CC(C)(C)[C@H](NC(=O)[C@H](Cc1nccs1)NC(=O)CNC(=O)CC[C@H](NS(=O)(=O)c1ccc(Cl)c(C(F)(F)F)c1)C(=O)O)C(=O)N1CCC[C@H]1CC(N)=O ({Benzenesulfonyl(4-Cl,3-CF3)-γGlu}-G[Ala(thiazol-2-yl)][Tle][β3hP]-NH2)
8.42	6.03	CC(C)(C)[C@H](NC(=O)[C@H](Cc1cscn1)NC(=O)CNC(=O)CC[C@H](NS(=O)(=O)c1ccc(Cl)c(C(F)(F)F)c1)C(=O)O)C(=O)N1CCC[C@H]1CC(N)=O ({Benzenesulfonyl(4-Cl,3-CF3)-γGlu}-G[Ala(4-thiazolyl)][Tle][β3hP]-NH2)
8.55	5.85	CC(C)(C)[C@H](NC(=O)[C@H](Cc1ccnnc1)NC(=O)CNC(=O)CC[C@H](NS(=O)(=O)c1ccc(Cl)c(C(F)(F)F)c1)C(=O)O)C(=O)N1CCC[C@H]1CC(N)=O ({Benzenesulfonyl(4-Cl,3-CF3)-γGlu}-G[Ala(4-Pyridazinyl)][Tle][β3hP]-NH2)
8.77	5.57	CC(C)(C)[C@H](NC(=O)[C@H](Cc1cccnc1)NC(=O)CNC(=O)CC[C@H](NS(=O)(=O)c1ccc(Cl)c(C(F)(F)F)c1)C(=O)O)C(=O)N1CCC[C@H]1CC(N)=O ({Benzenesulfonyl(4-Cl,3-CF3)-γGlu}-G[3Pal][Tle][β3hP]-NH2)
